Values quoted from earlier work, collected in publication PMC9851200, “Multiparameter phenotypic screening for endogenous TFEB and TFE3 translocation identifies novel chemical series modulating lysosome function” (Autophagy, 2022).

Columns and labels:
Design in all cases: method as in original PKIS2 published data
[1] = biological target: kinases (KINOMEscan panel) (Homo sapiens, UniProt P06239); conditions: LCK; Published KINOMEscan; ref original PKIS2 published data; cited from earlier work
[2] = biological target: kinases (KINOMEscan panel) (Homo sapiens, UniProt P42684); conditions: ABL2; Published KINOMEscan; ref original PKIS2 published data; cited from earlier work
[3] = biological target: T1, kinases (KINOMEscan panel) (Homo sapiens, UniProt P51955); conditions: kinase NEK2; Published KINOMEscan; ref original PKIS2 published data; cited from earlier work
T1 sequence (P51955 1-445): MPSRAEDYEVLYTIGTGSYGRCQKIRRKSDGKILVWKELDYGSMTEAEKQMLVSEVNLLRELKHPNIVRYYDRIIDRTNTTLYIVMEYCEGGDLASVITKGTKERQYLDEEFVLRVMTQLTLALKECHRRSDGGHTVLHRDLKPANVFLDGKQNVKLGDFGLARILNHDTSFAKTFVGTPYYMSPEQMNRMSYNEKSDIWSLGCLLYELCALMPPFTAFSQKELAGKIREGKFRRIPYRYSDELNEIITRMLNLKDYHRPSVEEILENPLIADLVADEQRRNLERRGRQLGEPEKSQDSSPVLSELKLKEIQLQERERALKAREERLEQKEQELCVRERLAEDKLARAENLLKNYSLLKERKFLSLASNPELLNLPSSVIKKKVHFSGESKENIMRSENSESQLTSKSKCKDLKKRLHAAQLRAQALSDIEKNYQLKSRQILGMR

[4] = biological target: kinases (KINOMEscan panel) (Homo sapiens, UniProt P53667); conditions: kinase LIMK1; Published KINOMEscan; ref original PKIS2 published data; cited from earlier work
[5] = biological target: kinases (KINOMEscan panel) (Homo sapiens, UniProt P53671); conditions: LIMK2; Published KINOMEscan; ref original PKIS2 published data; cited from earlier work
[6] = biological target: T2, kinases (KINOMEscan panel) (Homo sapiens, UniProt Q13237); conditions: PRKG2; Published KINOMEscan; ref original PKIS2 published data; cited from earlier work
T2 sequence (Q13237 1-762): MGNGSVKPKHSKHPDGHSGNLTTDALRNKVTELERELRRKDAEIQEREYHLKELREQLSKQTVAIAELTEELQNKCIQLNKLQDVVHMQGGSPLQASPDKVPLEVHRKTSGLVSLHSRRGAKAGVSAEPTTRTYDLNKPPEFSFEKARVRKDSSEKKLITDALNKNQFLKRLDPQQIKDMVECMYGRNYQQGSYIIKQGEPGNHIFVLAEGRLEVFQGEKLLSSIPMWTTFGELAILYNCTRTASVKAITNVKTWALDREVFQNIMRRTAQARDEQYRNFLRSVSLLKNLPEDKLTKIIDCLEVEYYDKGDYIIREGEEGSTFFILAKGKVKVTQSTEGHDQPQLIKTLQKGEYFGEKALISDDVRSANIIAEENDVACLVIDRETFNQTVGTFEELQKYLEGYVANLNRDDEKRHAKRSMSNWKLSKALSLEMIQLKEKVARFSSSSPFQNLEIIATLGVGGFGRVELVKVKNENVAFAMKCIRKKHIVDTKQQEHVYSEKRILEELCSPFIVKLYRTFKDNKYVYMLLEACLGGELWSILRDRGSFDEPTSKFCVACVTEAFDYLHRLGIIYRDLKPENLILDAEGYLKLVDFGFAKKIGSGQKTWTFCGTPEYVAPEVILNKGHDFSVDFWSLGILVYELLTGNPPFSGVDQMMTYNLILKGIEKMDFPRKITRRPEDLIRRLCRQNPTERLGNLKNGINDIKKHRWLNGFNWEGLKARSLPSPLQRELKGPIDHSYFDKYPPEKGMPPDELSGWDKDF

[7] = biological target: T3, kinases (KINOMEscan panel) (Homo sapiens, UniProt Q8TDC3); conditions: BRSK1; Published KINOMEscan; ref original PKIS2 published data; cited from earlier work
T3 sequence (Q8TDC3 1-778): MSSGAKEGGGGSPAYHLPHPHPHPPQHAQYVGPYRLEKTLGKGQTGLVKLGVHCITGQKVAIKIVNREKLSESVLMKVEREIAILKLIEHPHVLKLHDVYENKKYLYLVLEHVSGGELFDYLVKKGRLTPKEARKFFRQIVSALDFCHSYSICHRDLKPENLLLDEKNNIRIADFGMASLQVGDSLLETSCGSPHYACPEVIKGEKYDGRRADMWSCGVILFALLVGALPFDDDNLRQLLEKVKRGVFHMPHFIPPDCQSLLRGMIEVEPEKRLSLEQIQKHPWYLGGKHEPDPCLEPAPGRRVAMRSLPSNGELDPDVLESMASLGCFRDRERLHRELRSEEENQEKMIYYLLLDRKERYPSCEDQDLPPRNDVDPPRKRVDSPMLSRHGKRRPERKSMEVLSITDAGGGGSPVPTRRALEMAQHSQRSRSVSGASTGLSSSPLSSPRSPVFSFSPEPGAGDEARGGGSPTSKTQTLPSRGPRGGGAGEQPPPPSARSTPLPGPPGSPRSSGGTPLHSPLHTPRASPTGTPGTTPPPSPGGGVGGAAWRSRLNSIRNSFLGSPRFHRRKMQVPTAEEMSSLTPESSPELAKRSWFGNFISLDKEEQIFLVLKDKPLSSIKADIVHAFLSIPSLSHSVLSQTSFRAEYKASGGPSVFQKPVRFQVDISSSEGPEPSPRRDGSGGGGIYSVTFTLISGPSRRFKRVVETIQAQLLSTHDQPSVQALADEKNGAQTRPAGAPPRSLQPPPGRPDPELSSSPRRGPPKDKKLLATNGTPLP

[8] = biological target: kinases (KINOMEscan panel) (Homo sapiens, UniProt Q9BX84); conditions: TRPM6; Published KINOMEscan; ref original PKIS2 published data; cited from earlier work
[9] = biological target: kinases (KINOMEscan panel) (Homo sapiens, UniProt Q9NYY3); conditions: PLK2; Published KINOMEscan; ref original PKIS2 published data; cited from earlier work
kinases (KINOMEscan panel) (Homo sapiens, UniProt Q9NYY3), sequence (Q9NYY3 whole entry): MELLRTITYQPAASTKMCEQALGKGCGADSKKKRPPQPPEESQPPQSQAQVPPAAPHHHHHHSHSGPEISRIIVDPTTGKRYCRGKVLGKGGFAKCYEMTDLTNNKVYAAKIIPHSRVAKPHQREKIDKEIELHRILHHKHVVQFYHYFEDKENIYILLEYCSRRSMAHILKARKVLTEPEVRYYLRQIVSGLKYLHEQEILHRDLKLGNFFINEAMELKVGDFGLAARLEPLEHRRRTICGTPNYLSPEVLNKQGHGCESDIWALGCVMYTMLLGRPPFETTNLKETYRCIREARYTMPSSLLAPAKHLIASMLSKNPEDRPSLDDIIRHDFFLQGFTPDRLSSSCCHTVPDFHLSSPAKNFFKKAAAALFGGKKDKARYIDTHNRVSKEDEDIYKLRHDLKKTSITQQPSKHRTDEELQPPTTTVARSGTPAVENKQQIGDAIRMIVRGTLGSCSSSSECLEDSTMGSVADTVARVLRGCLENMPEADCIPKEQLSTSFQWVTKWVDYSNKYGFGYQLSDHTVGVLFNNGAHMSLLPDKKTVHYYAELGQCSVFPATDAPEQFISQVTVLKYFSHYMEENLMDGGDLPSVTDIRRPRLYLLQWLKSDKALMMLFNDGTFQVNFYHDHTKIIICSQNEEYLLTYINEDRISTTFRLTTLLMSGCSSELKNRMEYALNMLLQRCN

kinases (KINOMEscan panel) (Homo sapiens, UniProt P53671), sequence (P53671 whole entry): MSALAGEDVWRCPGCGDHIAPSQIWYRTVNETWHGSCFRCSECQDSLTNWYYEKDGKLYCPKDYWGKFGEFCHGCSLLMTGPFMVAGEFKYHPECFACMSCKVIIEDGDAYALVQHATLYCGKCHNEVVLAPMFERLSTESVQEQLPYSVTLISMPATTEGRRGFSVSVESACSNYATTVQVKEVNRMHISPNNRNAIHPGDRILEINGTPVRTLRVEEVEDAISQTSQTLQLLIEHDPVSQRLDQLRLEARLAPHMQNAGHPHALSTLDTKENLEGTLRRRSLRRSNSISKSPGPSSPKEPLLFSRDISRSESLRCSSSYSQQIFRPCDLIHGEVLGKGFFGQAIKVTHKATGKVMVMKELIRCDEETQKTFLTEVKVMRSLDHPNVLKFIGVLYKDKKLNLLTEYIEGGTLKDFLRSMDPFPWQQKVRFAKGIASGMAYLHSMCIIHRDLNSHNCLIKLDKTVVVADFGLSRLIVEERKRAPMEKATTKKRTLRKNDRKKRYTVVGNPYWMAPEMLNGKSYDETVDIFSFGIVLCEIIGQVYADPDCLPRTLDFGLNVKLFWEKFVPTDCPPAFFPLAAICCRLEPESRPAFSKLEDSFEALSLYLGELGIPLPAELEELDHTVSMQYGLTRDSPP
kinases (KINOMEscan panel) (Homo sapiens, UniProt P06239), sequence (P06239 whole entry): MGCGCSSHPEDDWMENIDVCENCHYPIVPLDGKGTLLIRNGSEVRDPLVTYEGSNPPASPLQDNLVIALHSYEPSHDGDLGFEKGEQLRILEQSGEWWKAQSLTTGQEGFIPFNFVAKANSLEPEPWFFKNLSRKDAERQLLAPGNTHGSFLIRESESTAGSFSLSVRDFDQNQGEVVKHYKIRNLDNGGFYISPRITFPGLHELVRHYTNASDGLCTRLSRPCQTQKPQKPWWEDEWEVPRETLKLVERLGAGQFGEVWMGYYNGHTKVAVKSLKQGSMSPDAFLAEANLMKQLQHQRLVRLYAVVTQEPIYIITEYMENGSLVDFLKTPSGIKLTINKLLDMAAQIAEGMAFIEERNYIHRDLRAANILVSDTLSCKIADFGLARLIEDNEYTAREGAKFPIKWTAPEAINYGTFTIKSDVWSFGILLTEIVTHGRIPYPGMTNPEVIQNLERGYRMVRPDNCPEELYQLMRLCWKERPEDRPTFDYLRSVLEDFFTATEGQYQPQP
kinases (KINOMEscan panel) (Homo sapiens, UniProt Q9BX84), sequence (Q9BX84 whole entry): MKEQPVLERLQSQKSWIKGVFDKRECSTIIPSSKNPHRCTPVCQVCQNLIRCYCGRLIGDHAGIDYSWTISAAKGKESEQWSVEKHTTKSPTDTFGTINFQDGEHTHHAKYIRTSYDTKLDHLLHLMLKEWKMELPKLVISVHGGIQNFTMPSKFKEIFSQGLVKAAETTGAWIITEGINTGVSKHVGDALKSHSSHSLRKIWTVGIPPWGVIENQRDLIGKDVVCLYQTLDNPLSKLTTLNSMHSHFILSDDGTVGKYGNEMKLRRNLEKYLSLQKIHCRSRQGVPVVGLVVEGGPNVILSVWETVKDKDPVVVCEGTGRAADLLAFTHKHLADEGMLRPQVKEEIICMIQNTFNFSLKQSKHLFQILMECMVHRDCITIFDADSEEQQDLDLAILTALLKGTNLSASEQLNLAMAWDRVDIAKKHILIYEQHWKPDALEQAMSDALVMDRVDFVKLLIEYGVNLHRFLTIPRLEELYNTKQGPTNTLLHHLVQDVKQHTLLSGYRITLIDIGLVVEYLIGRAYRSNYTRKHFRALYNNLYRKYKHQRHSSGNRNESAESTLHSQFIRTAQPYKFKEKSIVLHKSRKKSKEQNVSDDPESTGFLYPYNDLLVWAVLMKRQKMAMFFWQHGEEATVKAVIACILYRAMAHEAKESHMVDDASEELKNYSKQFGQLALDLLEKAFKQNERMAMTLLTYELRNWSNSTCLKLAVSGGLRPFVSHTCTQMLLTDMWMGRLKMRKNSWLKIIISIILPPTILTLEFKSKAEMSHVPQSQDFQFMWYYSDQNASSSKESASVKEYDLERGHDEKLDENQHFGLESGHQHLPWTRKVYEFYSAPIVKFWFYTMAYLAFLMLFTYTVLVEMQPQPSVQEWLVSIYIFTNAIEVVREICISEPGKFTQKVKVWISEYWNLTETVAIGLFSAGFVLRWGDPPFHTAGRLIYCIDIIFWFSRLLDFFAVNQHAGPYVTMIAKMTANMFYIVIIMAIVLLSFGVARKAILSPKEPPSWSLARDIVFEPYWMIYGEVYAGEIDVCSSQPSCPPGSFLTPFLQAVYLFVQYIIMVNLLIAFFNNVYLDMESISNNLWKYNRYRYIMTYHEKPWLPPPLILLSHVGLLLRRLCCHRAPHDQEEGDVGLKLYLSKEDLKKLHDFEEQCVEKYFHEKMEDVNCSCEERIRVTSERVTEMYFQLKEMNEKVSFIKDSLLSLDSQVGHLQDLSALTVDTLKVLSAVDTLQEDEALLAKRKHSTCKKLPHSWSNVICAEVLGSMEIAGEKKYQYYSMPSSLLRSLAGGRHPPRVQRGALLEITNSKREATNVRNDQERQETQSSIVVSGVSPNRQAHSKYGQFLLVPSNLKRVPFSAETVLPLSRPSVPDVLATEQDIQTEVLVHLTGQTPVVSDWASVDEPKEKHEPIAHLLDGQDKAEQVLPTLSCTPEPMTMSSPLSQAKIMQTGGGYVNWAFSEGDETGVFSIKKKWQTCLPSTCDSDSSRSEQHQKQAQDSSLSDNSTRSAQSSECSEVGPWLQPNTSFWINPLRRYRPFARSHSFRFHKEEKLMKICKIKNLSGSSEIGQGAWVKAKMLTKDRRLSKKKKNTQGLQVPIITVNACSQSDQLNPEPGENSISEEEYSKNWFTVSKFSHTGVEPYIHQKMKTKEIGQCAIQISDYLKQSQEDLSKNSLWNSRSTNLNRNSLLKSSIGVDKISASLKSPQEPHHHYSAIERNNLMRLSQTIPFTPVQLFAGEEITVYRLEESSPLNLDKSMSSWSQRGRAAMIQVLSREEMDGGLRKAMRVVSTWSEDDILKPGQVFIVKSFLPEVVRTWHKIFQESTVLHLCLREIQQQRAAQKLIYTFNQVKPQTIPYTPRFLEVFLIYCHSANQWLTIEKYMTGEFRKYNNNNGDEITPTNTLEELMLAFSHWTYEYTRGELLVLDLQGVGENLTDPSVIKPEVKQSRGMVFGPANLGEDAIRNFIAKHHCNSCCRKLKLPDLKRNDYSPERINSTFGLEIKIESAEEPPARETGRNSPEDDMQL
kinases (KINOMEscan panel) (Homo sapiens, UniProt P42684), sequence (P42684 whole entry): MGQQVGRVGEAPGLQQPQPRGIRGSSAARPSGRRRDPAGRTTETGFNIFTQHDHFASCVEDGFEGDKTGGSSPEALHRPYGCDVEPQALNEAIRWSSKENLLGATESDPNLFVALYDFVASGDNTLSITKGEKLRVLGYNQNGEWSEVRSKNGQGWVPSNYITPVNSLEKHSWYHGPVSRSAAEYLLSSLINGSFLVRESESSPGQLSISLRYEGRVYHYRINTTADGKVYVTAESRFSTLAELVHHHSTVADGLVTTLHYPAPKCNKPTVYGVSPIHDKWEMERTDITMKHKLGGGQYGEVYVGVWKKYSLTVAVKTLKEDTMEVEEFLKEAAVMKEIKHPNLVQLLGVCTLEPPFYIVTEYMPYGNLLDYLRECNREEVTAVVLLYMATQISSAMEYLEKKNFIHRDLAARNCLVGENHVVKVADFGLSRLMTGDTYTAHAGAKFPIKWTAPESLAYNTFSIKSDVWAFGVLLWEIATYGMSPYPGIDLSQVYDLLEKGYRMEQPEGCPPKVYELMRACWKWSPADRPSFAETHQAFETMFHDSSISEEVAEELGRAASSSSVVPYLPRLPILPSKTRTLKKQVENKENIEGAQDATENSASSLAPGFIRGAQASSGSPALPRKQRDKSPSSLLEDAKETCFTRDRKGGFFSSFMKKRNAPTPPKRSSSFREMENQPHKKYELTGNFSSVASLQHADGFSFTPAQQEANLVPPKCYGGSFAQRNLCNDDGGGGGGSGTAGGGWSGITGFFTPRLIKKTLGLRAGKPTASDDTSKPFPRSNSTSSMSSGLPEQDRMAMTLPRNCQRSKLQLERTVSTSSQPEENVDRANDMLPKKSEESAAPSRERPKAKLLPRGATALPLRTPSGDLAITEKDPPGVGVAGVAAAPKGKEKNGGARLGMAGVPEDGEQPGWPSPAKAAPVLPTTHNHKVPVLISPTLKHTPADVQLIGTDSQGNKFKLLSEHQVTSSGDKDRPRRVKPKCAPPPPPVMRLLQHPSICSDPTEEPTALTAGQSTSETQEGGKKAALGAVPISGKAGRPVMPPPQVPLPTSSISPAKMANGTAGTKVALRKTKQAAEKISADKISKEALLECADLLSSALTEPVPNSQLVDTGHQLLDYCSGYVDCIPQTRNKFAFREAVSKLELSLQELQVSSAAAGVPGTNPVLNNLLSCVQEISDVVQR

SMILES: Cc1cccc(-c2nc(Nc3ccncc3)c3ccccc3n2)n1 [NK215]
- KINOMEscan LCK [1]: 9
- KINOMEscan ABL2 [2]: 22
- KINOMEscan NEK2 [3]: 0
- KINOMEscan LIMK1 [4]: 12
- KINOMEscan LIMK2 [5]: 5
- KINOMEscan PRKG2 [6]: 0
- KINOMEscan BRSK1 [7]: 0
- KINOMEscan TRPM6 [8]: 0
- KINOMEscan PLK2 [9]: 0
